Source: patent US11414387B2, “Oxoacridinyl acetic acid derivatives and methods of use” (Stingthera, Inc., priority 2017, dated 2022)

Columns and labels:
mSTING-R232 = mSTING-R232 (Mus musculus, UniProt Q3TBT3); experiment: STING differential scanning fluorimetry (DSF) assay, mouse STING; conditions: net shift in melting temperature
Description: A STING DSF assay was performed to determine protein thermostability shift in response to small molecule ligand binding. A STING thermostability shift assay based on differential scanning fluorimetry was used to measure (1) the net shift in melting temperature (ΔTm)between the apo and ligand-bound states of the STING protein and (2) the concentration of the thermal denaturation transition (EC50) as a surrogate measure of binding affinity (K). […] Protein in assay buffer was transferred to a 384 well plate and incubated with the hydrophobic fluorescent dye SYBR Orange. A temperature ramp was applied to the plate and the resulting dye fluorescence was plotted as a function of temperature. The first derivative of this function (dF/dT) was then used to extrapolate the melting temperature of the protein at various concentrations of compound and determine the thermal denaturation profile of a protein/compound complex.
• 1. Protein construct (affinity tag removal vs SUMO-fusion construct) • 2. Protein concentration • 3. Dye concentration • 4. Buffer • 5. Thermal ramp velocity • 6. DMSO tolerance • 7. Compound titration parameters • 8. […] 5 μM purified Target STING Protein • 3. 8 μM Sypro Orange Dye • 4. Buffer: 100 mM NaCl, 30 mM HEPES, pH 7.5 • 5. Thermal Ramp: 0.5° C./min • 6. <1% DMSO • 7. 11 point, 2 fold dilution, duplicate, 300 μM high concentrations • 8.

hSTING-WT = hSTING-WT (Homo sapiens (Human), UniProt Q86WV6, H232R); experiment: Radiometric filtration binding competition assay, hSTING-WT
STING protein = STING protein (Homo sapiens (Human), UniProt Q86WV6, H232R); experiment: Cell based reporter assay of IRF activation (IRF-luciferase), THP1-dual-KI R232; conditions: read-out: THP1-dual-KI R232_IRF(Luciferase)_Activity Maximum measured (%)
hSTING-R232 = hSTING-R232 (Homo sapiens (Human), UniProt Q86WV6, H232R); experiment: STING differential scanning fluorimetry (DSF) assay, WT human STING; conditions: WT (R232) human STING aa140-379, net shift in melting temperature
mSTING = mSTING (Mus musculus, UniProt Q3TBT3); experiment: Radiometric filtration binding competition assay, mSTING

Chain of hSTING-WT (Q86WV6 140-379 H232R): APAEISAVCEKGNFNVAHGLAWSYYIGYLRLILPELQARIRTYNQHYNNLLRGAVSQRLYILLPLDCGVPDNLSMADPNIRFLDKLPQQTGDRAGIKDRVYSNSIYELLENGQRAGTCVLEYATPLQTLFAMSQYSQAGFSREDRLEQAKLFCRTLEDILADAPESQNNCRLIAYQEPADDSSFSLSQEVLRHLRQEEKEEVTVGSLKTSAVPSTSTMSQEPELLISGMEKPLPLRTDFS
Chain of hSTING-R232 (Q86WV6 140-379 H232R): as above
Chain of STING protein (Q86WV6 whole entry H232R, the tested form may be a part): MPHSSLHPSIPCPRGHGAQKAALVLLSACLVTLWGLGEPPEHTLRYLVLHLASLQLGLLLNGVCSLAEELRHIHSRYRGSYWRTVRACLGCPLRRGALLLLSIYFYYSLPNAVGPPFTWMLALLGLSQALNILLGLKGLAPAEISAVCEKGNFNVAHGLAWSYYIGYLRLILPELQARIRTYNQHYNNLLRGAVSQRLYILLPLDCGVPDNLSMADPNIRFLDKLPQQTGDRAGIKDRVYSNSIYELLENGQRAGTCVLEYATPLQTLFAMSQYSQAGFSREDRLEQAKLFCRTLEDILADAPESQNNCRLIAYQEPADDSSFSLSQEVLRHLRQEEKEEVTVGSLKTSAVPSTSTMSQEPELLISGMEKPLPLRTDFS

Compound | MOUSE DSF_6xHIS-SUMO Tm Shift (° C.) (mSTING-R232) | IC50 (hSTING-WT) [µM] | Emax (STING protein) [%] | WT_DSF_hSWAT Tm Shift (° C.) (hSTING-R232) | IC50 (mSTING) [µM]
O=C(O)Cn1c2cc(NCCN3CCc4ccccc43)ccc2c(=O)c2ccc(Cl)c(Cl)c21 [Compound 150] | C (“C” = 5-15° C.) | 100 to 300 | 5 to 25 | C (“C” = 2-7° C,) | 
COc1cccc2c(=O)c3ccccc3n(CC(=O)O)c12 [Compound 131] | A (“A” < 0° C.) | > 300 |  | A (“A” < 0° C.) | 
O=C(O)Cn1c2cc(N3CCc4ccccc43)ccc2c(=O)c2ccc(Cl)c(Cl)c21 [Compound 144] | C (“C” = 5-15° C.) | 100 to 300 | < 5 | C (“C” = 2-7° C,) | 
COc1ccc2c(c1C)c(=O)c1ccc(Cl)c(Cl)c1n2CC(=O)O [Compound 133] | B (“B” = 0-5° C.) | 100 to 300 |  | A (“A” < 0° C.) | 
O=C(O)Cn1c2cc(C(F)(F)F)ccc2c(=O)c2ccc(Cl)c(Cl)c21 [Compound 165] | C (“C” = 5-15° C.) | > 300 |  | B (“B” = 0-2° C.) | 
CC(C(=O)O)n1c2ccccc2c(=O)c2ccc(Cl)c(Cl)c21 (stereo not drawn) [Compound 141] | A (“A” < 0° C.) | > 300 |  |  | 
CCCCCCOc1c(Cl)ccc2c(=O)c3ccccc3n(CC(=O)O)c12 [Compound 303] |  | 20 to 100 | 5 to 25 | C (“C” = 2-7° C,) | 100 to 300
CSc1c(Cl)ccc2c(=O)c3ccc(Nc4ncccn4)cc3n(CC(=O)O)c12 [Compound 276] |  | < 20 | > 50 | D (“D” > 7° C.) | < 20
C=CCOc1c(Cl)ccc2c(=O)c3ccccc3n(CC(=O)O)c12 [Compound 273] |  | 20 to 100 | > 50 | C (“C” = 2-7° C,) | 20 to 100
NC(=O)Cn1c2ccccc2c(=O)c2ccc(Cl)c(Cl)c21 [Compound 146] | B (“B” = 0-5° C.) |  |  |  | 
O=C(O)Cn1c2ccccc2c(=O)c2cccc(Br)c21 [Compound 130] | C (“C” = 5-15° C.) | > 300 |  | B (“B” = 0-2° C.) | 
Cc1ccc2c(=O)c3ccc(Cl)cc3n([C@@H](C)C(=O)O)c2c1 [Compound 180] | B (“B” = 0-5° C.) | 20 to 100 |  | A (“A” < 0° C.) | 

Now from value to compound:

MOUSE DSF_6xHIS-SUMO Tm Shift (° C.) (mSTING-R232) | IC50 (hSTING-WT) [µM] | Emax (STING protein) [%] | WT_DSF_hSWAT Tm Shift (° C.) (hSTING-R232) | IC50 (mSTING) [µM] | Compound
C (“C” = 5-15° C.) | 100 to 300 | < 5 | A (“A” < 0° C.) |  | O=C(O)Cn1c2cc(-c3cccc(Cl)n3)ccc2c(=O)c2ccc(Cl)c(Cl)c21 [Compound 162]
C (“C” = 5-15° C.) | 100 to 300 | < 5 | C (“C” = 2-7° C,) |  | O=C(O)Cn1c2cc(NC3CCOCC3)ccc2c(=O)c2ccc(Cl)c(Cl)c21 [Compound 142]
B (“B” = 0-5° C.) | > 300 |  | B (“B” = 0-2° C.) |  | O=C(O)Cn1c2cc(NC3CCNCC3)ccc2c(=O)c2ccc(Cl)c(Cl)c21 [Compound 143]
C (“C” = 5-15° C.) | > 300 |  | B (“B” = 0-2° C.) |  | O=C(O)Cn1c2ccccc2c(=O)c2ccc(F)c(Br)c21 [Compound 173]
B (“B” = 0-5° C.) | 100 to 300 |  | A (“A” < 0° C.) |  | Cc1ccc2c(=O)c3ccc(Cl)cc3n([C@H](C)C(=O)O)c2c1 [Compound 179]
 | 20 to 100 | < 5 | C (“C” = 2-7° C,) | < 20 | O=C(O)Cn1c2cc(Cl)ccc2c(=O)c2ccc(Nc3ccccc3)cc21 [Compound 301]
 | 20 to 100 | < 5 | C (“C” = 2-7° C,) | 20 to 100 | COc1c(Cl)ccc2c(=O)c3ccc(C(C)C)cc3n(CC(=O)NS(=O)(=O)C(F)(F)F)c12 [Compound 261]
